Reference: PubChem BioAssay (NCI)
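Cultured in 96-well plates, cells were exposed to test compound for 48 hours across five concentrations. GI50 is the concentration that inhibits growth by half. TGI: concentration producing complete growth inhibition.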

Experiments:
Assay in all cases: NCI-60 cell line screen, 48 h
[1] = system: HCC-2998 colon
[2] = system: T-47D breast
[3] = system: NCI-H23 lung
[4] = system: PC-3 prostate
[5] = system: KM12 colon
[6] = system: MOLT-4 leukemia
[7] = system: CAKI-1 renal
[8] = system: A498 renal
[9] = system: SF-295 CNS
[10] = system: M14 melanoma
[11] = system: MCF7 breast
[12] = system: OVCAR-4 ovarian
[13] = system: MDA-MB-231 breast
[14] = system: RXF 393 renal
[15] = system: DU-145 prostate
[16] = system: SF-539 CNS
[17] = system: SNB-19 CNS
[18] = system: BT-549 breast
[19] = system: SF-268 CNS
[20] = system: HOP-92 NSCLC
[21] = system: NCI-H226 lung
[22] = system: SR leukemia
[23] = system: SK-MEL-2 melanoma
[24] = system: SK-MEL-28 melanoma
[25] = system: NCI-H460 lung
[26] = system: HS 578T breast
[27] = system: MDA-MB-435
[28] = system: OVCAR-5 ovarian
[29] = system: NCI/ADR-RES ovarian
[30] = system: RPMI-8226 leukemia
[31] = system: SW-620 colon
[32] = system: IGROV1 ovarian
[33] = system: HT29 colon
[34] = system: HCT-15 colon
[35] = system: SNB-75 CNS
[36] = system: 786-0 renal
[37] = system: SK-MEL-5 melanoma
[38] = system: HL-60(TB) leukemia
[39] = system: A549 NSCLC
[40] = system: OVCAR-3 ovarian
[41] = system: UO-31 renal
[42] = system: U251 CNS
[43] = system: TK-10 renal
[44] = system: K-562 leukemia
[45] = system: NCI-H522 lung
[46] = system: COLO 205 colon
[47] = system: ACHN renal
[48] = system: MALME-3M melanoma
[49] = system: HCT-116 colon
[50] = system: UACC-62 melanoma
[51] = system: HOP-62 NSCLC
[52] = system: SK-OV-3 ovarian
[53] = system: EKVX NSCLC
[54] = system: SN12C renal
[55] = system: UACC-257 melanoma
[56] = system: OVCAR-8 ovarian
[57] = system: CCRF-CEM leukemia
[58] = system: LOX IMVI melanoma

## NS(=O)(=O)c1nnc(NS(=O)(=O)c2ccccc2[N+](=O)[O-])s1
[1]
  TGI: > 100 µM
[2]
  TGI: > 100 µM
[3]
  TGI: > 100 µM
[4]
  TGI: > 100 µM
[5]
  TGI: > 100 µM
[6]
  TGI: > 100 µM
[7]
  TGI: > 100 µM
[8]
  TGI: > 100 µM
[9]
  TGI: > 100 µM
[10]
  TGI: > 100 µM
[11]
  TGI: > 100 µM
[12]
  TGI: > 100 µM
[13]
  TGI: > 100 µM
[14]
  TGI: > 100 µM
[15]
  TGI: > 100 µM
[16]
  TGI: > 100 µM
[17]
  TGI: > 100 µM
[18]
  TGI: > 100 µM
[19]
  TGI: > 100 µM
[20]
  TGI: > 100 µM
[21]
  TGI: > 100 µM
[22]
  TGI: > 100 µM
[23]
  TGI: > 100 µM
[24]
  TGI: > 100 µM
[25]
  TGI: > 100 µM
[26]
  TGI: > 100 µM
[27]
  TGI: > 100 µM
[28]
  TGI: > 100 µM
[29]
  TGI: > 100 µM
[30]
  TGI: > 100 µM
[31]
  TGI: > 100 µM
[32]
  TGI: > 100 µM
[33]
  TGI: > 100 µM
[34]
  TGI: > 100 µM
[35]
  TGI: > 100 µM
[36]
  TGI: > 100 µM
[37]
  TGI: > 100 µM
[38]
  TGI: > 100 µM
[39]
  TGI: > 100 µM
[40]
  TGI: > 100 µM
[41]
  TGI: > 100 µM
[42]
  TGI: > 100 µM
[43]
  TGI: > 100 µM
[44]
  TGI: > 100 µM
[45]
  TGI: > 100 µM
[46]
  TGI: > 100 µM
[47]
  TGI: > 100 µM
[48]
  TGI: > 100 µM
[49]
  TGI: > 100 µM
[50]
  TGI: > 100 µM
[51]
  TGI: > 100 µM
[52]
  TGI: > 100 µM
[53]
  TGI: > 100 µM

## COC(=O)c1c[nH]c2cc(OC(C)C)c(OC(C)C)cc2c1=O
[1]
  GI50: > 100 µM
  TGI: > 100 µM
[2]
  GI50: > 100 µM
  TGI: > 100 µM
[3]
  GI50: > 100 µM
  TGI: > 100 µM
[4]
  GI50: > 100 µM
  TGI: > 100 µM
[5]
  GI50: > 100 µM
  TGI: > 100 µM
[6]
  GI50: > 100 µM
  TGI: > 100 µM
[7]
  GI50: > 100 µM
  TGI: > 100 µM
[8]
  GI50: > 100 µM
  TGI: > 100 µM
[10]
  GI50: > 100 µM
  TGI: > 100 µM
[11]
  GI50: > 100 µM
  TGI: > 100 µM
[54]
  GI50: > 100 µM
  TGI: > 100 µM
[13]
  GI50: > 100 µM
  TGI: > 100 µM
[14]
  GI50: > 100 µM
  TGI: > 100 µM
[15]
  GI50: > 100 µM
  TGI: > 100 µM
[16]
  GI50: > 100 µM
  TGI: > 100 µM
[17]
  GI50: > 100 µM
  TGI: > 100 µM
[18]
  GI50: > 100 µM
  TGI: > 100 µM
[19]
  GI50: > 100 µM
  TGI: > 100 µM
[20]
  GI50: > 100 µM
  TGI: > 100 µM
[21]
  GI50: > 100 µM
  TGI: > 100 µM
[22]
  GI50: > 100 µM
  TGI: > 100 µM
[23]
  GI50: > 100 µM
  TGI: > 100 µM
[24]
  GI50: > 100 µM
  TGI: > 100 µM
[25]
  GI50: > 100 µM
  TGI: > 100 µM
[26]
  GI50: > 100 µM
  TGI: > 100 µM
[55]
  GI50: > 100 µM
  TGI: > 100 µM
[27]
  GI50: > 100 µM
  TGI: > 100 µM
[28]
  GI50: > 100 µM
  TGI: > 100 µM
[29]
  GI50: > 100 µM
  TGI: > 100 µM
[30]
  GI50: > 100 µM
  TGI: > 100 µM
[31]
  GI50: > 100 µM
  TGI: > 100 µM
[32]
  GI50: > 100 µM
  TGI: > 100 µM
[33]
  GI50: > 100 µM
  TGI: > 100 µM
[34]
  GI50: > 100 µM
  TGI: > 100 µM
[35]
  GI50: > 100 µM
  TGI: > 100 µM
[36]
  GI50: > 100 µM
  TGI: > 100 µM
[56]
  GI50: > 100 µM
  TGI: > 100 µM
[37]
  GI50: > 100 µM
  TGI: > 100 µM
[38]
  GI50: > 100 µM
  TGI: > 100 µM
[39]
  GI50: > 100 µM
  TGI: > 100 µM
[57]
  GI50: > 100 µM
  TGI: > 100 µM
[40]
  GI50: > 100 µM
  TGI: > 100 µM
[58]
  GI50: > 100 µM
  TGI: > 100 µM
[41]
  GI50: > 100 µM
  TGI: > 100 µM
[42]
  GI50: > 100 µM
  TGI: > 100 µM
[43]
  GI50: > 100 µM
  TGI: > 100 µM
[44]
  GI50: > 100 µM
  TGI: > 100 µM
[45]
  GI50: > 100 µM
  TGI: > 100 µM
[46]
  GI50: > 100 µM
  TGI: > 100 µM
[47]
  GI50: > 100 µM
  TGI: > 100 µM
[48]
  GI50: > 100 µM
  TGI: > 100 µM
[49]
  GI50: > 100 µM
  TGI: > 100 µM
[50]
  GI50: > 100 µM
  TGI: > 100 µM
[51]
  GI50: 79.6 µM
  TGI: > 100 µM
[52]
  GI50: > 100 µM
  TGI: > 100 µM
[53]
  GI50: > 100 µM
  TGI: > 100 µM
